Where “and” joins values, the source holds several entries; their conditions need not be identical. Identical values can stand only once. Inconclusive results and toxic doses are left out. Rule as the data show it: active = T/C of 150% or more; inactive = T/C below 125%.
Tested on: L1210 leukemia ip in BDF1 mice, survival T/C
Test: NCI In Vivo Anticancer Drug Screen. Data for tumor model L1210 Leukemia (intraperitoneal) in B6D2F1 (BDF1) mice
Details: endpoint: mean survival time, higher = longer survival
Procedure, shortened: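 Transplantable tumor model; survival measured in treated vs vehicle control mice. Value = treated/control.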

[1] = dose: 100.0 mg/kg/injection, schedule: Q01DX001 (ip), vehicle: saline with Tween-80
[2] = dose: 200.0 mg/kg/injection, schedule: Q01DX001 (ip), vehicle: saline with Tween-80
[3] = dose: 400.0 mg/kg/injection, schedule: Q01DX001 (ip), vehicle: saline with Tween-80
[4] = dose: 100.0 mg/kg/injection, schedule: Q01DX009 (ip), vehicle: Klucel (hydroxypropylcellulose) (HPC)
[5] = dose: 200.0 mg/kg/injection, schedule: Q01DX009 (ip), vehicle: Klucel (hydroxypropylcellulose) (HPC)
[6] = dose: 25.0 mg/kg/injection, schedule: Q01DX009 (ip), vehicle: Klucel (hydroxypropylcellulose) (HPC)
[7] = dose: 50.0 mg/kg/injection, schedule: Q04DX003 (ip), vehicle: Klucel (hydroxypropylcellulose) (HPC)
[8] = dose: 200.0 mg/kg/injection, schedule: Q04DX003 (ip), vehicle: Klucel (hydroxypropylcellulose) (HPC)
[9] = dose: 400.0 mg/kg/injection, schedule: Q04DX003 (ip), vehicle: Klucel (hydroxypropylcellulose) (HPC)
[10] = dose: 50.0 mg/kg/injection, schedule: Q01DX009 (ip), vehicle: Klucel (hydroxypropylcellulose) (HPC)
[11] = dose: 100.0 mg/kg/injection, schedule: Q04DX003 (ip), vehicle: Klucel (hydroxypropylcellulose) (HPC)
[12] = dose: 50.0 mg/kg/injection, schedule: Q01DX001 (ip), vehicle: carboxymethylcellulose (CMC)
[13] = dose: 100.0 mg/kg/injection, schedule: Q01DX001 (ip), vehicle: carboxymethylcellulose (CMC)
[14] = dose: 200.0 mg/kg/injection, schedule: Q01DX001 (ip), vehicle: carboxymethylcellulose (CMC)
[15] = dose: 400.0 mg/kg/injection, schedule: Q01DX001 (ip), vehicle: carboxymethylcellulose (CMC)
[16] = dose: 100.0 mg/kg/injection, schedule: Q01DX009 (ip), vehicle: saline
[17] = dose: 200.0 mg/kg/injection, schedule: Q01DX009 (ip), vehicle: saline
[18] = dose: 100.0 mg/kg/injection, schedule: Q01DX001 (ip), vehicle: saline
[19] = dose: 200.0 mg/kg/injection, schedule: Q01DX001 (ip), vehicle: saline
[20] = dose: 400.0 mg/kg/injection, schedule: Q01DX001 (ip), vehicle: saline
[21] = dose: 100.0 mg/kg/injection, schedule: Q04DX003 (ip), vehicle: saline with Tween-80
[22] = dose: 200.0 mg/kg/injection, schedule: Q04DX003 (ip), vehicle: saline with Tween-80
[23] = dose: 400.0 mg/kg/injection, schedule: Q04DX003 (ip), vehicle: saline with Tween-80
[24] = dose: 50.0 mg/kg/injection, schedule: Q01DX009 (ip), vehicle: saline
[25] = dose: 100.0 mg/kg/injection, schedule: Q01DX001 (ip), vehicle: Klucel (hydroxypropylcellulose) (HPC)
[26] = dose: 200.0 mg/kg/injection, schedule: Q01DX001 (ip), vehicle: Klucel (hydroxypropylcellulose) (HPC)
[27] = dose: 400.0 mg/kg/injection, schedule: Q01DX001 (ip), vehicle: Klucel (hydroxypropylcellulose) (HPC)

Measured: T/C

O=c1cc(O)nc(C(F)(F)F)[nH]1
inactive: dose: 29.0 mg/kg/injection, schedule: Q01DX Z (ip), vehicle: methylcellulose (MC) 92 % of control | dose: 44.0 mg/kg/injection, schedule: Q01DX Z (ip), vehicle: methylcellulose (MC) 96 % of control | dose: 66.0 mg/kg/injection, schedule: Q01DX Z (ip), vehicle: methylcellulose (MC) 103 % of control | dose: 100.0 mg/kg/injection, schedule: Q01DX Z (ip), vehicle: methylcellulose (MC) 100 % of control

CC(=O)N(Cc1ccccc1)C1C(OCc2ccccc2)OC(CO)C(O)C1OCc1ccccc1 (stereo unspecified)
inactive: [1] 89 % of control | [2] 96 % of control | [3] 100 % of control

CCCCCCCCCCCCCCCCCCNC(=O)Cc1ccc(N(CCCl)CCCl)cc1
inactive: [4] 94 % of control | [5] 95 % of control

CCc1cccc(OS(=O)(=O)c2ccc([N+](=O)[O-])cc2)c1
inactive: [6] 95 % of control | [4] 92 % of control

Cc1ccc(S(=O)(=O)OCC2OC(OCc3ccccc3)C3OC(C)(C)OC23)cc1 (stereo unspecified)
inactive: [7] 91 % of control | [8] 88 % of control | [9] 92 % of control

CCOC(=O)C(C)S(=O)(=O)/C(=C\N1CCCCC1)CC (stereo unspecified)
inactive: dose: 100.0 mg/kg/injection, schedule: Q04DX002 (ip), vehicle: Klucel (hydroxypropylcellulose) (HPC) 109 % of control | dose: 100.0 mg/kg/injection, schedule: Q04DX003 (ip), vehicle: other 104 % of control | dose: 200.0 mg/kg/injection, schedule: Q04DX002 (ip), vehicle: Klucel (hydroxypropylcellulose) (HPC) 98 % of control | dose: 200.0 mg/kg/injection, schedule: Q04DX003 (ip), vehicle: other 96 % of control | dose: 400.0 mg/kg/injection, schedule: Q04DX002 (ip), vehicle: Klucel (hydroxypropylcellulose) (HPC) 112 % of control | dose: 400.0 mg/kg/injection, schedule: Q04DX003 (ip), vehicle: other 102 % of control

CCC(=O)Nc1cccc2ccccc12
inactive: dose: 12.5 mg/kg/injection, schedule: Q01DX009 (ip), vehicle: Klucel (hydroxypropylcellulose) (HPC) 104 % of control | [6] 112 % of control | [10] 101 % of control and 89 % of control | [11] 95 % of control | [8] 106 % of control

CCN1c2ccccc2S(=O)c2cc([N+](=O)[O-])ccc21 (stereo unspecified)
inactive: [12] 93 % of control | [13] 87 % of control | [14] 96 % of control | [15] 98 % of control

CN1C2CCC1CNC2
inactive: [16] 101 % of control | [17] 96 % of control | dose: 400.0 mg/kg/injection, schedule: Q01DX009 (ip), vehicle: saline 90 % of control

CCOC(=O)C1OC1C1c2cccc3cccc(c23)C1C1OC1C(=O)OCC (stereo unspecified)
inactive: [18] 107 % of control | [19] 94 % of control | [20] 102 % of control

Cc1cc(C)nc(NNc2nc(C)cc(C)n2)n1
inactive: [1] 105 % of control | [21] 92 % of control | [2] 104 % of control | [22] 92 % of control | [3] 100 % of control | [23] 100 % of control

O=C1c2cc(Cl)ccc2-c2c1cc(Cl)cc2[N+](=O)[O-]
inactive: [11] 100 % of control | [8] 104 % of control | [9] 98 % of control

CCC(=O)Nc1cc(C)c(C)cc1C
inactive: [4] 100 % of control | [5] 105 % of control

S=C1SCN(C(c2ccccc2)c2ccccc2)CN1C(c1ccccc1)c1ccccc1
inactive: [21] 95 % of control | [22] 94 % of control | [23] 96 % of control

CCOP(=O)(OCC)OC(=C(Cl)Cl)C(Cl)(Cl)Cl
inactive: dose: 100.0 mg/kg/injection, schedule: Q04DX002 (ip), vehicle: saline with Tween-80 115 % of control | dose: 200.0 mg/kg/injection, schedule: Q04DX002 (ip), vehicle: saline with Tween-80 102 % of control

O=c1[nH]c2cnccc2c(=O)n1OS(=O)(=O)c1ccccc1
inactive: [10] 90 % of control | [4] 90 % of control | [5] 97 % of control

C=CCOC(=O)Nc1ccc(S(=O)(=O)CC)cc1
inactive: [13] 94 % of control | [14] 102 % of control | [15] 91 % of control

Cc1cn(C2CC(CO)CC2O)c(=O)[nH]c1=O (stereo unspecified)
inactive: [24] 104 % of control | [16] 107 % of control | [17] 107 % of control

CN(C)C(=S)SCCOc1ccc(Cl)cc1Cl
inactive: dose: 25.0 mg/kg/injection, schedule: Q04DX003 (ip), vehicle: Klucel (hydroxypropylcellulose) (HPC) 95 % of control | [7] 98 % of control | [25] 96 % of control | [11] 101 % of control | [26] 100 % of control | [27] 104 % of control

O=C1OC(c2ccccc2)(c2cccc3ccccc23)CC1c1ccccc1 (stereo unspecified)
inactive: [18] 98 % of control | [19] 98 % of control | [20] 89 % of control

CC(=O)C1(C)Nc2cccc3cccc(c23)N1
inactive: dose: 100.0 mg/kg/injection, schedule: Q01DX009 (ip), vehicle: saline with Tween-80 97 % of control | dose: 200.0 mg/kg/injection, schedule: Q01DX009 (ip), vehicle: saline with Tween-80 106 % of control | dose: 400.0 mg/kg/injection, schedule: Q01DX009 (ip), vehicle: saline with Tween-80 96 % of control

Nc1ccc(SCC(=O)O)cc1
inactive: dose: 75.0 mg/kg/injection, schedule: Q01DX001 (ip), vehicle: saline 94 % of control | dose: 150.0 mg/kg/injection, schedule: Q01DX001 (ip), vehicle: saline 100 % of control | dose: 300.0 mg/kg/injection, schedule: Q01DX001 (ip), vehicle: saline 92 % of control

CC(=O)OCC1OC(n2c(Br)nc3c(N)ncnc32)C2OC(C)(C)OC12 (stereo unspecified)
inactive: dose: 25.0 mg/kg/injection, schedule: Q01DX001 (ip), vehicle: carboxymethylcellulose (CMC) 95 % of control | [12] 100 % of control | [13] 93 % of control

CC(C)(C)SCCC(=O)NC1CCCCC1
inactive: [24] 90 % of control | [16] 95 % of control | dose: 100.0 mg/kg/injection, schedule: Q04DX003 (ip), vehicle: saline 106 % of control | [17] 93 % of control | dose: 200.0 mg/kg/injection, schedule: Q04DX003 (ip), vehicle: saline 101 % of control

CCOC(=O)c1cn2ccc3ccccc3c2n1
inactive: [25] 103 % of control | [26] 98 % of control | [27] 98 % of control
